The values that follow come from publication PMC5716993, “The interdomain flexible linker of the polypeptide GalNAc transferases dictates their long-range glycosylation preferences” (Nature Communications, 2017).

The target in the test is T1, GalNAc-T4 (Homo sapiens, UniProt Q8N4A0).
T1 construct: amino acid residues 36–578 of the human GalNAc-T4; histidine tag (C); made in house; host or cells: Pichia pastoris SMD1168 (pPICZαA, secreted)
As to the kind of experiment: STD-NMR binding / epitope mapping. As to conditions: normalized to the highest STD response; 298 K, pH 7.4, UDP, MnCl2; in words. The procedure: All NMR experiments were recorded on a Bruker Avance 600 MHz spectrometer equipped with a triple channel cryoprobe head. The^1H NMR resonances of the peptides 1–3 were completely assigned through standard 2D-TOCSY (30 and 80 ms mixing time) and 2D-NOESY experiments (400 ms mixing time). Solution conditions used for the NMR characterization studies were 1–3 mM (glyco)peptide, 25 mM perdeuterated tris-d11 in 90:10 H2O/D2O, 7.5 mM NaCl, and 1 mM DTT, uncorrected pH 7.4. The assignments were accomplished either at 278 or 298 K. The resonance of 2,2,3,3-tetradeutero-3-trimethylsilylpropionic acid (TSP) was used as a chemical shift reference in the^1H NMR experiments (δ TSP = 0 ppm). Peak lists for the 2D-TOCSY and 2D-NOESY spectra were generated by interactive peak picking using the computer aided resonance assignment (CARA) software.
Samples for STD experiments were prepared in perdeuterated 25 mM TRIS-d11 in deuterated water, 7.5 mM NaCl, and 1 mM DTT, uncorrected pH 7.4. STD-NMR experiments were performed at 298 K in the presence of 75 μM UDP, 75 μM MnCl2 with ~880 μM peptide (or GalNAc-O-Me) and 13.5 μM GalNAc-T4 giving a molar ratio of 65:1 peptide:GalNAc-T4.
The STD-NMR spectra were acquired with 1920 transients in a matrix with 64 k data points in t2 in a spectral window of 12335.53 Hz centered at 2819.65 Hz. An excitation sculpting module with gradients was employed to suppress the water proton signals. Selective saturation of the protein resonances (on resonance spectrum) was performed by irradiating at −1 ppm using a series of Eburp2.1000-shaped 90° pulses (50 ms, 1 ms delay between pulses) for a total saturation time of 2.0 s. For the reference spectrum (off resonance), the samples were irradiated at 100 ppm. Proper control experiments were performed with the ligands in the presence and absence of the protein in order to optimize the frequency for protein saturation (−1 ppm) and to ensure that the ligand signals were not affected. […] This nonspecific saturation was taken into account, by subtraction, when quantifying the STD-NMR data in the presence of the transferase. As well, a blank STD experiment with only the protein was also recorded. The substraction of this protein STD spectrum allowed eliminating the signal background of the protein. In all cases, to accomplish the STD-NMR-derived epitope mapping of each ligand, the STD-NMR total intensities were normalized with respect to the highest STD-NMR response. For Fig. 2b and Supplementary Fig. 1, the STD response of each amino acid corresponds to the average of STD percentages of all amino acid proton resonances that were measured with sufficient accuracy. The signal of the anomeric proton of as well as, the Hα protons of the Ala amino acids of glycopeptides could not be analyzed in the STD-NMR spectra due to their close proximity to the HDO resonance. Proton resonances, from Gly and Pro, appear in the same chemical shift region of the spectrum and were not discriminated.

T1 sequence (Q8N4A0 36-578): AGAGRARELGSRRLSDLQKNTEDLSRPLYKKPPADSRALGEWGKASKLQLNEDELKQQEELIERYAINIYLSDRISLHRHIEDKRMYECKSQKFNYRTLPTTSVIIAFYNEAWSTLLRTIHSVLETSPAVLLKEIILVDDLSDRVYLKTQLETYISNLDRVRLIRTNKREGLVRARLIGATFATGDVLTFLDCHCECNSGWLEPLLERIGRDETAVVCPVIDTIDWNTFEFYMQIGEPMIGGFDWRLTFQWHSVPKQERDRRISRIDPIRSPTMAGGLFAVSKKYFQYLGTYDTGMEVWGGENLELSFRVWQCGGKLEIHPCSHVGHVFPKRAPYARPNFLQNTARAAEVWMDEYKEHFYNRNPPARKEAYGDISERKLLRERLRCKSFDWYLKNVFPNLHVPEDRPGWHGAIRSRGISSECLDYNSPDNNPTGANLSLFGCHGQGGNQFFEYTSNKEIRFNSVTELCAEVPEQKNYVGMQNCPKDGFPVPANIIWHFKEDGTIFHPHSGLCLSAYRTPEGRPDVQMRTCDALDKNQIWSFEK

For `CO[C@H]1O[C@H](CO)[C@H](O)[C@H](O)[C@H]1NC(C)=O` [α-methyl-GalNAc, reference compound], the “STD-NMR-derived epitope mapping of GalNAc moiety” value is “the highest STD response corresponded to the H2 proton of the GalNAc moiety followed by a modest STD of protons H4, H3, and N-acetyl group”.
